Source: PMC10788917 (Journal of Medicinal Chemistry, 2023)

Each molecule was assayed against T1, HDAC8 (Homo sapiens, UniProt Q9BY41) (assay: Kinetic parameters of inactivation from time-dependent IC50). Settings: HDAC8, inactivation constant.
T1 construct: one additional N-terminal residue 'H' (His) (N)
T1 sequence (Q9BY41 1-377): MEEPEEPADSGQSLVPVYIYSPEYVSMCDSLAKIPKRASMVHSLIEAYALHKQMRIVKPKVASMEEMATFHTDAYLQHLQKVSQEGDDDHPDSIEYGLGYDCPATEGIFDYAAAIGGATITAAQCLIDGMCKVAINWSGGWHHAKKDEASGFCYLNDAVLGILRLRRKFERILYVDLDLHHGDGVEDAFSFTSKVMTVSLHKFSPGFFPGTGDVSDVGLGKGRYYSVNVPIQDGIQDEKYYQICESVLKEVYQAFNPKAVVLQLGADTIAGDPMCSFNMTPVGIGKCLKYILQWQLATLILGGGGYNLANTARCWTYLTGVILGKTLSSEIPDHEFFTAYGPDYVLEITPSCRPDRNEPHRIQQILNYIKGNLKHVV
Format: biochemical
Description: Time-dependent IC50 values were obtained using the previously described enzyme activity assay after varying preincubation times.

Q: For `C#Cc1ccc[n+](C)c1` [B6+], which Ki is on record?
A: 0.8 µM

These molecules were tested against HDAC8 WT (Homo sapiens, UniProt Q9BY41) (assay: Dilution/dialysis reversibility experiment). Settings: 2000-fold dilution by overnight dialysis.
Format: biochemical

Q: With `C#Cc1ccc[n+](C)c1` [B6+] as the molecule, how does the “reversibility of covalent binding” value read?
A: irreversible

Each molecule was assayed on THP-1 cells (assay: CellTiter-Blue cell viability assay). Settings: Homo sapiens, 72 h, Figure 7A, read-out: cell viability IC50, THP-1.
Format: cell-based
Description: All cell lines were purchased from DSMZ (Braunschweig, Germany). The cell lines were regularly tested to exclude mycoplasma contamination and authenticated. […] Media were supplemented with 10% fetal calf serum (FCS), 10 units/mL penicillin, 10 μg/mL streptomycin, and 2 mM L-glutamine (all Gibco, Thermo Fisher Scientific).
To determine the IC50 of the selected compounds on the cell lines, the CellTiter-Blue cell viability assay (Promega) was performed. For this, cells were seeded in 96-well flat-bottom plates at a cell density of 10 000 cells/well. Cells were treated in triplicate with the compound of interest at various concentrations or with 10 μM Bortezomib (S1013; Selleck Chemicals, Houston, TX), as a positive control. […] Plates were measured using a GloMax plate reader (Promega), and IC50 values were determined by nonlinear regression using GraphPad Prism version 9.1.1 (GraphPad Software, Inc.), and the data are reported as mean values ± the standard error of the mean.

Q: Which IC50 does the source give for `C#Cc1cnccc1NC(=O)CC(=O)N1Cc2ccccc2C1` [compound 11, N-(3-Ethynylpyridin-4-yl)-3-(isoindolin-2-yl)-3-oxopropanamide] here?
A: > 500 µM

These molecules were tested on HL60 cells (assay: CellTiter-Blue cell viability assay). Settings: Homo sapiens, HL-60; 72 h, Figure 7A.
Format: cell-based
Description: All cell lines were purchased from DSMZ (Braunschweig, Germany). The cell lines were regularly tested to exclude mycoplasma contamination and authenticated. Cell lines were grown at 37 °C and 5% CO2 in RPMI 1640 medium (Gibco, Thermo Fisher Scientific). Media were supplemented with 10% fetal calf serum (FCS), 10 units/mL penicillin, 10 μg/mL streptomycin, and 2 mM L-glutamine (all Gibco, Thermo Fisher Scientific).
To determine the IC50 of the selected compounds on the cell lines, the CellTiter-Blue cell viability assay (Promega) was performed. For this, cells were seeded in 96-well flat-bottom plates at a cell density of 10 000 cells/well. Cells were treated in triplicate with the compound of interest at various concentrations or with 10 μM Bortezomib (S1013; Selleck Chemicals, Houston, TX), as a positive control. The cell viability of treated cell lines was measured using CellTiter-Blue after incubation for 72 h. Plates were measured using a GloMax plate reader (Promega), and IC50 values were determined by nonlinear regression using GraphPad Prism version 9.1.1 (GraphPad Software, Inc.), and the data are reported as mean values ± the standard error of the mean.

Q: Which IC50 does the source give for `C#Cc1cnccc1NC(=O)CC(=O)N1Cc2ccccc2C1` [compound 11, N-(3-Ethynylpyridin-4-yl)-3-(isoindolin-2-yl)-3-oxopropanamide] here?
A: > 500 µM

These molecules were tested on SMC3 acetylation (assay: Western blot (immunoblot) in OCI-AML3 cells). Settings: 72 h treatment.
Format: cell-based
Description: Cells (2 ×10^6) were seeded in 2 mL of medium in a six-well plate (Greiner) and treated with the desired concentration of the compounds. […] Protein concentrations were determined by the Bradford protein assay. Thirty micrograms of cell lysates per treatment was fractionated on sodium dodecyl sulfate–polyacrylamide gels and transferred to nitrocellulose membranes (Cytiva).

Q: How did the “effect on HDAC8 levels” value turn out when `C#Cc1ccc[n+](C)c1` [B6+] was run?
A: not influencing HDAC8 levels

What follows are molecules tested on GSH (glutathione) (assay: physchem). Settings: PBS buffer with 5 mM glutathione (GSH), pH 7.4.
Description: The AUC (area under the curve) values were determined via integration of HPLC or MS chromatograms and then corrected with the internal standard. The fragments’ AUC values were subjected to ordinary least-squares (OLS) linear regression, and to compute the important parameters (kinetic rate constant and half-life time), an Excel sheet was applied. The data are expressed as means of duplicate determinations. The kinetic rate constant for the degradation and corrected GSH reactivity were calculated as follows. The reaction half-life for pseudo-first-order reactions (t1/2) is ln 2/k, where k is the reaction rate. In the case of competing reactions (reaction with GSH and degradation), the apparent reaction rate is kapp = kdeg + kGSH. When half-lives are measured experimentally, t1/2(app) = ln 2/(kapp) = ln 2/(kdeg + kGSH). In our case, the corrected kdeg and kapp (regarding blank and GSH-containing samples, respectively) can be calculated by linear regression of the measured kinetic data points. The corrected kGSH is calculated as kapp – kdeg, and finally, the half-life is determined using the equation t1/2 = ln 2/k.

Q: For `Clc1ncc[nH]1` [H1], which half-life at 250 μM is on record?
A: > 48 h

Q: `Brc1ncc[nH]1` [H2] was tested. Which half-life at 250 μM did it give?
A: > 48 h

Q: For `Ic1ncc[nH]1` [H3], which half-life at 250 μM is on record?
A: 0.16 h

Q: With `Clc1c[nH]cn1` [J1] as the molecule, how does the half-life at 250 μM read?
A: > 48 h

Q: How did the half-life at 250 μM turn out when `Brc1c[nH]cn1` [J2] was run?
A: > 48 h

Q: How did the half-life at 250 μM turn out when `Ic1c[nH]cn1` [J3] was run?
A: > 48 h

Q: With `Brc1ccn[nH]1` [K2] as the molecule, how does the half-life at 250 μM read?
A: > 48 h

Q: With `Ic1ccn[nH]1` [K3] as the molecule, how does the half-life at 250 μM read?
A: > 48 h

Q: Which half-life at 250 μM does the source give for `Clc1cn[nH]c1` [L1] here?
A: > 48 h

Q: How did the half-life at 250 μM turn out when `Brc1cn[nH]c1` [L2] was run?
A: > 48 h

Q: With `Ic1cn[nH]c1` [L3] as the molecule, how does the half-life at 250 μM read?
A: > 48 h

Q: `Ic1ncco1` [N3] was tested. Which half-life at 250 μM did it give?
A: 0.23 h

Q: How did the half-life at 250 μM turn out when `Brc1cncs1` [Q2] was run?
A: > 48 h

Q: `Brc1nccs1` [R2] was tested. Which half-life at 250 μM did it give?
A: > 48 h

Same assay, conditions: buffer, pH 7.4

Q: `N#Cc1ccccn1` [A4] was tested. Which half-life at 250 μM did it give?
A: > 48 h

Q: With `Cn1cc[n+](C)c1C#N` [H4+] as the molecule, how does the half-life at 250 μM read?
A: > 48 h
